Assay results as given in patent publication US11819572B2, “Treatment of pain by administration of sustained-release liposomal anesthetic compositions” (Pacira Pharmaceuticals, Inc., priority 2020, dated 2023).

How the values were obtained:
[1] = test system: rats; assay: Intravenous administration to rats of bupivacaine and EXPAREL: tolerability; type: in vivo
Procedure: The following is a summary of the results from two pre-clinical studies that compared the tolerability and PK profiles for non-liposomal bupivacaine vs EXPAREL®
Improved toleration was attributed to the reduced peak plasma levels of bupivacaine observed in animals following administration of EXPAREL® vs non-liposomal bupivacaine. 1) Intravenous (IV) Administration to Rats of (a) Bupivacaine and (b) EXPAREL®:
Free bupivacaine was administered to three rats in an amount equivalent to 1.0, 1.75 and 2.5 mg/kg of bupivacaine. Two rats died, corresponding to a 67% mortality rate. In a separate experiment, EXPAREL® was administered to rats in an amount equivalent to 2.5, 5.0 and 7.5 mg/kg of bupivacaine. […] The NOELs (no observable effect levels) determined for EXPAREL® and for free bupivacaine in this study were 7.5 mg/kg and 1.0 mg/kg, respectively.

[2] = in vivo; details: beagle, dog, iv, 1.5 mg/kg
Procedure: Without wishing to be held to any particular mechanism or theory, it is believed that the observed toxicity differences above are attributable to the differences in plasma bupivacaine levels of the groups of dogs receiving free bupivacaine and EXPAREL®, respectively. […] Similarly, the Cmax for dogs receiving the same dose as in (i)—i.e., (1.5 mg/kg) of EXPAREL®—was clearly lower than that of dogs receiving free bupivacaine. […] The difference in exposure between the two groups may also be seen by comparing the respective values of Cmax/dose. […] In contrast with the above differences in Cmax in the two groups, the total AUC/dose was similar in dogs receiving EXPAREL® as compared to dogs receiving free bupivacaine. In particular, the values for female dogs were 751 (ng-hr/mL)/(mg/kg) for EXPAREL® (1.5 mg/kg dose), 674 (ng-hr/mL)/(mg/kg) for EXPAREL® (4.5 mg/kg dose), and 738 (ng-hr/mL)/(mg/kg)) for free bupivacaine. The values for male dogs were 1510 (ng-hr/mL)/(mg/kg) for EXPAREL® (1.5 mg/kg dose), 826 (ng-hr/mL)/(mg/kg) for EXPAREL® (4.5 mg/kg dose), and 879 (ng-hr/mL)/(mg/kg) for free bupivacaine.
(§1) The study was conducted in a manner analogous to the intravenous administration study described in a) above.

[3] = test system: Beagle dogs; assay: Intravenous administration to Beagle dogs of bupivacaine and EXPAREL: adverse events and cardiology; type: in vivo, Beagle dog
Procedure: a) Intravenous (IV) Administration to Beagle Dogs of (a) Bupivacaine and (b) EXPAREL®:
Free bupivacaine was administered to dogs in an amount equivalent to 0.75 mg/kg and to 1.5 mg/kg of bupivacaine. Three dogs (one that was administered 0.75 mg/kg, and two that were administered 1.5 mg/kg) experienced side-effects such as convulsions, tremors, increased respiration and/or emesis (Table 1). In a separate experiment, EXPAREL® was administered to dogs in the same amount as above. […] A 3-fold higher dose of EXPAREL® (that is, a dose equivalent to 4.5 mg/kg of bupivacaine) was then administered to the dogs.

[4] = Bupivacaine plasma pharmacokinetics after intra-arterial (IA) administration in Beagle dogs; type: in vivo; details: Beagle dog plasma bupivacaine, 0.1 mg/kg, Day 1, mean
Procedure: b) Intra-Arterial Administration to Beagle Dogs of (a) Bupivacaine and (b) EXPAREL®:
as §1

[5] = three rats, 1.0, 1.75 and 2.5 mg/kg of bupivacaine
[6] = Beagle dogs, dose 0.75, 1.5 mg/kg (Group 2)

For `CCCCN1CCCCC1C(=O)Nc1c(C)cccc1C` (stereo not drawn) [free bupivacaine, bupivacaine], the “NOEL (no observable effect level)” value ([1]; rats) was 1.0 mg/kg, the Mortality rate [1, 5] was 67% and the Rats that died [1, 5] was “Two rats died”. For the same compound, the AUC(0-t) ([2]; female) was 1110 ng·h/mL, the “AUC(0 − t)/D” value ([2]; female) was 738 ng·h/mL/mg/kg and the Cmax ([2]; female) was 2050 ng/mL. It also gave a Cmax/D ([2]; female) of 1370 ng·kg/mL/mg, a Cmax/dose ([2]; female) of 1.37 and a half-life ([2]; female) of 28.4 min. For the same compound, the “total AUC/dose” value ([2]; female) was 738 (ng-hr/mL)/(mg/kg), the AUC(0-t) ([2]; male) was 1320 ng·h/mL and the “AUC(0 − t)/D” value ([2]; male) was 879 ng·h/mL/mg/kg. For the same compound, the Cmax ([2]; male) was 2750 ng/mL, the Cmax/D ([2]; male) was 1830 ng·kg/mL/mg and the Cmax/dose ([2]; male) was 1.83. For the same compound, the half-life ([2]; male) was 31.2 min, the “total AUC/dose” value ([2]; male) was 879 (ng-hr/mL)/(mg/kg) and the “Dogs that experienced side-effects such as convulsions, tremors, increased respiration and/or emesis” value ([3]; 0.75 mg/kg) was “one”. For the same compound, the “Dogs that experienced side-effects such as convulsions, tremors, increased respiration and/or emesis” value ([3]; 0.75 mg/kg and 1.5 mg/kg of bupivacaine (all)) was “Three dogs”, the “Dogs that experienced side-effects such as convulsions, tremors, increased respiration and/or emesis” value ([3]; 1.5 mg/kg) was “two” and the “Cardiology: Change in heart rate (BMP, avg)” value [3, 6] was 56 ± 31 BMP. The “No. of animals exhibiting clinical symptoms: Increased respiration” value [3, 6] was 2, the “No. of animals exhibiting clinical symptoms: Sustained convulsions” value [3, 6] was 1 and the “No. of animals exhibiting clinical symptoms: Tremors” value [3, 6] was 1. For the same compound, the “No. of animals exhibiting clinical symptoms: Unsustained convulsions” value [3, 6] was 0, the “No. of animals exhibiting clinical symptoms: Vomiting” value [3, 6] was 2 and the AUC(0-t) ([4]; Female) was 62.6 ng·h/mL. For the same compound, the “AUC(0 − t)/D” value ([4]; Female) was 626 ng·h/mL/mg/kg, the Cmax ([4]; Female) was 187 ng/mL and the Cmax/D ([4]; Female) was 1870 ng·kg/mL/mg. The half-life ([4]; Female) was 16 min, the AUC(0-t) ([4]; Male) was 71.1 ng·h/mL and the “AUC(0 − t)/D” value ([4]; Male) was 711 ng·h/mL/mg/kg. The Cmax ([4]; Male) was 205 ng/mL, the Cmax/D ([4]; Male) was 2050 ng·kg/mL/mg and the half-life ([4]; Male) was 15.8 min.
